± gives the expanded uncertainty stated by the source.
Experiment: xn = mol fraction of the nth substance listed
Details: Liquid, Vibrating tube method

CC12CCC(CC1)C(C)(C)O2 [1,3,3-trimethyl-2-oxabicyclo[2.2.2]octane] + CCCO
mass density [kg/m3]
Details	20000 kPa	25000 kPa	30000 kPa	35000 kPa	40000 kPa
283.15 K, x1 = 0.0499	839.5 ± 1	842.9 ± 1	845.8 ± 1	848.9 ± 1	851.6 ± 1
283.15 K, x1 = 0.1061	853.7 ± 1	856.9 ± 1	859.8 ± 1	862.8 ± 1	865.5 ± 1
283.15 K, x1 = 0.2029	873.3 ± 1	876.4 ± 1	879.3 ± 1	882.3 ± 1	885 ± 1
283.15 K, x1 = 0.3028	889.7 ± 1	892.8 ± 1	895.6 ± 1	898.6 ± 1	901.4 ± 1
283.15 K, x1 = 0.3955	901.8 ± 1	905 ± 1	907.9 ± 1	910.7 ± 1	913.5 ± 1
283.15 K, x1 = 0.4938	912.4 ± 1	915.6 ± 1	918.5 ± 1	921.3 ± 1	924 ± 1
283.15 K, x1 = 0.5904	921.2 ± 1	924.4 ± 1	927.3 ± 1	930.1 ± 1	932.9 ± 1
283.15 K, x1 = 0.7	929.6 ± 1	932.8 ± 1	935.7 ± 1	938.5 ± 1	941.2 ± 1
283.15 K, x1 = 0.7915	935.7 ± 1	938.9 ± 1	941.7 ± 1	944.6 ± 1	947.3 ± 1
283.15 K, x1 = 0.8954	941.2 ± 1	944.3 ± 1	947.2 ± 1	950.1 ± 1	952.8 ± 1
283.15 K, x1 = 0.9332	942.9 ± 1	946.1 ± 1	949 ± 1	951.8 ± 1	954.5 ± 1
283.15 K, x1 = 1	945.9 ± 1	949.1 ± 1	952 ± 1	954.9 ± 1	957.6 ± 1
298.15 K, x1 = 0.0499	828.6 ± 1	831.8 ± 1	835.1 ± 1	838.1 ± 1	841.2 ± 1.1
298.15 K, x1 = 0.1061	842.6 ± 1	845.8 ± 1	849 ± 1	852 ± 1	855 ± 1
298.15 K, x1 = 0.2029	862 ± 1	865.2 ± 1	868.4 ± 1	871.4 ± 1	874.4 ± 1
298.15 K, x1 = 0.3028	878.3 ± 1	881.6 ± 1	884.7 ± 1	887.7 ± 1	890.6 ± 1
298.15 K, x1 = 0.3955	890.5 ± 1	893.7 ± 1	896.7 ± 1	899.8 ± 1	902.7 ± 1
298.15 K, x1 = 0.4938	901 ± 1	904.3 ± 1	907.3 ± 1	910.3 ± 1	913.2 ± 1
298.15 K, x1 = 0.5904	909.7 ± 1	912.9 ± 1	915.9 ± 1	918.9 ± 1	921.9 ± 1
298.15 K, x1 = 0.7	917.9 ± 1	921.1 ± 1	924.2 ± 1	927.1 ± 1	930.1 ± 1
298.15 K, x1 = 0.7915	923.9 ± 1	927.1 ± 1	930.2 ± 1	933.2 ± 1	936.1 ± 1
298.15 K, x1 = 0.8954	929.4 ± 1	932.6 ± 1	935.7 ± 1	938.8 ± 1	941.6 ± 1
298.15 K, x1 = 0.9332	931.1 ± 1	934.3 ± 1	937.3 ± 1	940.3 ± 1	943.3 ± 1
298.15 K, x1 = 1	934.1 ± 1	937.4 ± 1	940.5 ± 1	943.4 ± 1	946.4 ± 1
313.15 K, x1 = 0.0499	817.1 ± 1	820.8 ± 1	824.3 ± 1	827.5 ± 1.1	830.7 ± 1.1
313.15 K, x1 = 0.1061	831 ± 1	834.7 ± 1	838.1 ± 1	841.3 ± 1	844.5 ± 1.1
313.15 K, x1 = 0.2029	850.4 ± 1	854 ± 1	857.4 ± 1	860.7 ± 1	863.9 ± 1
313.15 K, x1 = 0.3028	866.6 ± 1	870.2 ± 1	873.5 ± 1	876.7 ± 1	879.8 ± 1
313.15 K, x1 = 0.3955	878.6 ± 1	882.2 ± 1	885.5 ± 1	888.7 ± 1	891.7 ± 1
313.15 K, x1 = 0.4938	889.1 ± 1	892.6 ± 1	895.9 ± 1	899 ± 1	902.1 ± 1
313.15 K, x1 = 0.5904	897.7 ± 1	901.2 ± 1	904.5 ± 1	907.6 ± 1	910.8 ± 1
313.15 K, x1 = 0.7	905.8 ± 1	909.3 ± 1	912.6 ± 1	915.8 ± 1	918.9 ± 1
313.15 K, x1 = 0.7915	911.8 ± 1	915.3 ± 1	918.6 ± 1	921.8 ± 1	924.9 ± 1
313.15 K, x1 = 0.8954	917.3 ± 1	920.8 ± 1	924 ± 1	927.3 ± 1	930.5 ± 1
313.15 K, x1 = 0.9332	919.1 ± 1	922.5 ± 1	925.9 ± 1	929.1 ± 1	932.2 ± 1
313.15 K, x1 = 1	922.3 ± 1	925.8 ± 1	929.1 ± 1	932.4 ± 1	935.5 ± 1
328.15 K, x1 = 0.0499	805.9 ± 1	809.7 ± 1	813.3 ± 1	816.8 ± 1.1	820.2 ± 1.1
328.15 K, x1 = 0.1061	819.7 ± 1	823.5 ± 1	827.1 ± 1	830.6 ± 1.1	833.9 ± 1.1
328.15 K, x1 = 0.2029	838.9 ± 1	842.6 ± 1	846.3 ± 1	849.6 ± 1	853.1 ± 1
328.15 K, x1 = 0.3028	854.9 ± 1	858.6 ± 1	862.1 ± 1	865.6 ± 1	868.9 ± 1
328.15 K, x1 = 0.3955	866.9 ± 1	870.5 ± 1	874 ± 1	877.4 ± 1	880.9 ± 1
328.15 K, x1 = 0.4938	877.2 ± 1	880.9 ± 1	884.4 ± 1	887.9 ± 1	891.2 ± 1
328.15 K, x1 = 0.5904	885.9 ± 1	889.6 ± 1	893.1 ± 1	896.5 ± 1	899.9 ± 1
328.15 K, x1 = 0.7	894 ± 1	897.7 ± 1	901.2 ± 1	904.6 ± 1	908 ± 1
328.15 K, x1 = 0.7915	899.9 ± 1	903.7 ± 1	907.2 ± 1	910.5 ± 1	913.9 ± 1
328.15 K, x1 = 0.8954	905.5 ± 1	909.3 ± 1	912.7 ± 1	916.2 ± 1	919.5 ± 1
328.15 K, x1 = 0.9332	907.3 ± 1	911 ± 1	914.5 ± 1	917.9 ± 1	921.3 ± 1
328.15 K, x1 = 1	910.6 ± 1	914.3 ± 1	917.9 ± 1	921.3 ± 1	924.7 ± 1

Source: the NIST ThermoML archive (doi:10.1021/je100577v)
